Reference: patent US6638938B1, “Method for preventing tissue injury from hypoxia” (Cell Therapeutics, Inc., priority 1993, dated 2003)

Assays:
TNFα = TNFα sandwich ELISA of BAL supernatants and plasma; format: in vivo, Balb/C mice
Experimental: This example illustrates a study of Lisofylline in a murine hemorrhage and resuscitation model. Male Balb/C mice, 8-12 weeks of age, were obtained from Harlan-Sprague Dawley (Indianapolis, Ind.). The animals were kept on a 12 hour light/dark cycle with free access to food and water. With this model, 30% of the calculated blood volume (approximately 0.55 ml for a 20 gram mouse) was withdrawn from a methoxyflurane anesthetized mouse by cardiac puncture over a 60-second period. The blood was collected into a heparinized syringe (5 units heparin), kept at 37° C. for one hour, then reinfused into the mouse through a retroorbital plexus injection. Using this method, one is able to resuscitate all hemorrhaged mice without complication. The total period of methoxyflurane anesthesia is less than 2 minutes in all cases. The mortality rate with this hemorrhage protocol is approximately 12%, with all deaths occurring over the 24 hours post hemorrhage, and most deaths occurring within the one hour post hemorrhage.
Mice were treated with 100 mg/kg Lisofylline in 0.2 ml PBS and given initially i.v., by retroorbital injection, then i.p. every 8 hours for a total of 9 doses. In hemorrhaged mice, the Lisofylline in PBS was added to the shed blood, and then given retroorbitally with the blood during the resuscitation phase. In hemorrhaged Balb/C mice (n=3), sacrificed by exsanguination 5 minutes after receiving Lisofylline with the blood used for resuscitation, serum levels of Lisofylline were 44±6 μg/ml.
Three days following hemorrhage and resuscitation or the initiation of treatment with Lisofylline therapy in normal treated animals, mice were anesthetized with methoxyflurane and sacrificed by exsanguination through cardiac puncture into a heparinized (5 U) syringe. Normal mice, not subjected to hemorrhage/resuscitation or to treatment with Lisofylline, were included. Bronchoalveolar lavage (BAL) specimens, using 1.0 ml PBS injected and aspirated three times into the trachea and lungs, were obtained. Cells contained in the BAL were collected by centrifugation of BAL specimens. […] As determined by cytology, there was less than 3% contamination of alveolar macrophages with lymphocytes, neutrophils, or other mononuclear cell populations when BAL specimens are collected in normal Balb/C mice, but approximately 11±2% of isolated cells are neutrophils in mice subjected 3 days previously to 30% blood volume hemorrhage with resuscitation one hour later. […]
TNFα and IFN-γconcentrations in BAL supernatants and plasma were determined with sandwich ELISA assays using the monoclonal antibody pairs (i.e., unbiotinylated or biotinylated) MP6-XT3 for TNFα and XMG1.2 for IFN-γ(Pharmingen San Diego, Calif.). […]

isolated rat lungs = experiment: human neutrophil perfused isolated rat lungs given IL-8 intratracheally
Experimental: After Sprague-Dawley adult male rats (350±50 g) were anesthetized with pentobarbital (60 mg/kg i.p.), a tracheotomy cannula was placed and secured with 2-O ligature. Lungs were ventilated with a tidal volume of 3 cc at a rate of 60/min. with a gas mixture containing 5% CO2 21% O2 and 74% N2. Following midline thoracotomy, a 4-O ligature was loosely placed around the root of the pulmonary outflow tract. Heparin (200 units) was injected into the right ventricle and allowed to recirculate. A rigid cannula was placed into the right ventricle, threaded into the pulmonary outflow tract, and secured with the ligature. The left ventricle was incised and a drainage cannula was inserted and secured with a 2-O ligature. Lungs and heart were excised, placed in an isolated lung chamber, and ventilated with 2.5 cm of positive end-expiratory pressure. Lungs were perfused free of blood using Earle's Balanced Salt Solution (Sigma) containing calcium chloride (0.265 g/L), magnesium sulfate (0.09767 g/L), potassium chloride (0.4 g/L), sodium chloride (6.8 g/L), sodium phosphate monobasic (0. 122 g/L) and D-glucose (1 g/L) to which was added sodium bicarbonate (2.2 g/L.) and Ficoll-70 (Sigma)(40 g/L), and the final pH adjusted to 7.40. […] Pulmonary artery pressures were continuously monitored with a transducer and weight increases were monitored with a force transducer. […]

[1] = tested on: neutrophils in lung lavages; experiment: lung lavage neutrophils of intact rats given IL-1 intratracheally; format: in vivo, Sprague-Dawley rats
Experimental: Interleukin-1α (IL-1) and Lisofylline administration in Male Sprague-Dawley rats weighing 300-350 g (Sasco, Omaha, Neb.) were fed a normal diet and acclimated to altitude (Denver, Colo.) for at least 14 days before study. Rats were anesthetized with ketamine (90 mg/kg) and zylazine (7 mg/kg) intraperitoneally and then supplemented as needed with ketamine and zylazine and kept on a warming blanket. The trachea was cannulated with an indwelling 15 gauge stub adaptor tube. After 5 ventilated breaths (Harvard Apparatus Co., Millis, Mass.), IL-1 (0.5 ml, 50 ng) in sterile, endotoxin-free saline, was rapidly instilled intratracheally with a syringe, followed by another 5 ventilated breaths. Sham treated rats received identical anesthesia and surgery but were injected only with sterile saline intratracheally. […]
Saline (3.0 ml×2) was slowly injected intratracheally and then withdrawn. Recovered lavage fluid was quantitated and centrifuged for 5 min and the cell pellet resuspended in 1.0 ml of lavage. Total cells were counted in a hemocytometer and a cytospin preparation (Shandon Southern Products Ltd, Cheshire, England) Wright-stained and examined to determine the percentages of neutrophils.

PA and DAG generation = settings: cited from earlier work

Q: What does the source list for `C[C@@H](O)CCCCn1c(=O)c2c(ncn2C)n(C)c1=O` [Lisofylline, 1-R-(5-hydroxyhexyl)-3,7-dimethylxanthine]?
A: plasma TNFα concentrations (TNFα; hemorrhage/resuscitated/Lisofylline treated mice): 218 ± 49 pg/mL; TNFα concentrations in BAL supernatants (TNFα; hemorrhaged/resuscitated mice treated): 73 ± 45 pg/mL; plasma TNFα concentrations (TNFα; normal/Lisofylline treated mice): 116 ± 36 pg/mL; TNFα in BAL supernatants (TNFα; unhemorrhaged mice treated, p<0.01 versus normal untreated): 676±80 pg/mil; Lung Weight Gain (isolated rat lungs; Neutrophils + IL-8 + Lisofylline 1 μM): 0.0 ± 0.0 (3)δ g; Lung Weight Gain (isolated rat lungs; Neutrophils + IL-8 + Lisofylline 50 μM): 0.0 ± 0.0 (4)δ g; Total Lavage PMNs ([1]; IL-1 + Lisofylline (100 μg/kg)): 3.64 ± 0.84 (9)δ number × 10^6; Total Lavage PMNs ([1]; Sham + Lisofylline (100 μg/kg)): 0.42 ± 0.14 (8)δ number × 10^6; concentrations at which Lisofylline effectively inhibits PA synthesis (PA and DAG generation): 10 to 30 µM
